Biological target: γ-glutamyl transpeptidase (Homo sapiens, UniProt P19440)
Experiment: γ-glutamyl transpeptidase (GGT)-catalyzed hydrolysis of monomers followed by NMR
Format: biochemical
Details: monomer 25 μM in PBS pH 7.4 (D2O), GGT 1 U/mL, 37° C.
Procedure: Dissolve monomers GABEA or GAEA in PBS solution (pH=7.4, prepared by D2O) and configure the monomer concentration to 25 μM in the PBS solution. γ-glutamyl transpeptidase was added into the solution respectively so that the concentration of γ-glutamyl transpeptidase in the solution is 1 U/mL. At this time, the obtained product was immediately detected by nuclear magnetic resonance. The sample was placed in a 37° C. incubator and analyzed the nuclear magnetic resonance at different times.

γ-glutamyl transpeptidase, sequence (P19440 whole entry): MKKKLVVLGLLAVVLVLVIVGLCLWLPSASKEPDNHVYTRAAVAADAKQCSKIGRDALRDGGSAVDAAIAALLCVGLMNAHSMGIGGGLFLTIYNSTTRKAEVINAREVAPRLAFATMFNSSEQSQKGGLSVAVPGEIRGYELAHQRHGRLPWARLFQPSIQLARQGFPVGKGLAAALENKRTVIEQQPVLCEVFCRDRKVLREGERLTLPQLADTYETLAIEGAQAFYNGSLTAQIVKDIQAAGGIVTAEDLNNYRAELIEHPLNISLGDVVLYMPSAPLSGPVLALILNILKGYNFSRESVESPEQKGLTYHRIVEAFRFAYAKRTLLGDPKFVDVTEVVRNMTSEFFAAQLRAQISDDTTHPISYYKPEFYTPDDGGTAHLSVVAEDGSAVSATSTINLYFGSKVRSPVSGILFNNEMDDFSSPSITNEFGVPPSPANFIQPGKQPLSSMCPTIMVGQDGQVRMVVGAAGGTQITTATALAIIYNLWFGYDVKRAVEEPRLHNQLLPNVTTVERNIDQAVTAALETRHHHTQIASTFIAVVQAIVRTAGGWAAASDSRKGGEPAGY

Row | Compound | hydrolysis activity of γ-glutamyl transpeptidase
1 | C=CC(=O)NCCNC(=O)C(CC)NC(=O)CCC(N)C(=O)O (centres unmarked) [GABEA] | far greater than GAEA
2 | C=CC(=O)NCCNC(=O)CCC(N)C(=O)O (centres unmarked) [GAEA] | lower catalytic activity

Reference: US11364232B2, “Polymer of gamma-glutamyl transpeptidase catalyzing hydrolysis-induced charge reversal and its application in the field of drug delivery” (ZHEJIANG UNIVERSITY, priority 2017, dated 2022)
